This passage reports IC50 results from US9321748B2, “Aminopyridine derived compounds as LRRK2 inhibitors” (H. Lundbeck A/S, priority 2013, dated 2016).

Assay [1] has as its target LRRK2 G2019S (Homo sapiens (Human), UniProt Q5S007, G2019S). Put plainly: LRRK2 G2019S kinase activity assay (LanthaScreen TR-FRET). Format: biochemical. To be noted: 250 pM LRRK2 G2019S kinase, 1.3 mM ATP, 0.4 μM fluorescein-LRRKtide. As for the experimental part:
(§1) LRRK2 Wild-Type and G2019S Kinase Activity Assay.
(§2) LRRK2 kinase activity is measured using a LanthaScreen kinase activity assay available from Invitrogen (Life Technologies Corporation). […] The phosphorylated peptide is recognized by a terbium-labelled phospho-specific anti-LRRKtide antibody and, subsequently, the phosphorylated LRRKtide can be quantified by the extent of TR-FRET between the terbium donor and fluorescein acceptor.
(§3) The LRRK2 kinase is obtained from Invitrogen (Life Technologies Corporation) and comprises residue 970 to 2527 of the full length human wildtype LRRK2 kinase or a similar sequence with the G2019S mutation. As discussed above, this mutation increases the kinase activity relative to the wild type. The kinase reactions are performed in a […] volume in 384-well plates. The kinase reaction buffer consists of 50 mM Tris pH 8.5, 0.01% BRIJ-35, 10 mM MgCl2, 1 mM EGTA, and 2 mM DTT.
(§4) The reaction mixture (20 μl total volume) is incubated for 2 hours at 30° C. before the reaction is terminated by addition of 10 mM EDTA and 1 nM terbium-labelled anti-phospho-LRRKtide antibody (final volume […]). The mixture is further incubated for 30 minutes at RT. TR-FRET is measured by excitation of the terbium-donor with 340 nm light and subsequent (delay time 100 μs) measurement of terbium and fluorescein emission at 495 nm and 520 nm, respectively, over a time window of 1000 μs. The measurement is repeated 10 times for fluorescein and 10 times for terbium emission with a 2000 μs time window between repeats. TR-FRET measurements are performed on a […] plate. The TR-FRET signal is calculated as the emission-ratio at 520 nm over 495 nm.
(§5) Test compound potency (IC50) was estimated by nonlinear regression using the sigmoidal dose-response (variable slope) using Xlfit 4 (IDBS, Guildford, Surrey, UK, model 205). y=(A+((B−A)/(1+((C/x)^D)))) where y is the normalized TR-TRET ratio measurement for a given concentration of test compound, x is the concentration of test compound, A is the estimated efficacy (% inhibition) at infinite compound dilution, and B is the maximal efficacy (% inhibition). C is the IC50 value and D is the Hill slope coefficient. IC50 estimates were obtained from independent experiment and the logarithmic average was calculated.
(TR-FRET usually uses a lanthanide donor and a delayed reading to cut background.)

Assay [2] has as its target LRRK2 WT (Homo sapiens (Human), UniProt Q5S007). Put plainly: LRRK2 wild-type kinase activity assay (LanthaScreen TR-FRET). To be noted: 1 nM LRRK2 WT kinase, 1.3 mM ATP, 0.4 μM fluorescein-LRRKtide. Format: biochemical. As for the experimental part:
as §1, §2, §3, §4, §5

LRRK2 G2019S, sequence (Q5S007 970-2527 G2019S): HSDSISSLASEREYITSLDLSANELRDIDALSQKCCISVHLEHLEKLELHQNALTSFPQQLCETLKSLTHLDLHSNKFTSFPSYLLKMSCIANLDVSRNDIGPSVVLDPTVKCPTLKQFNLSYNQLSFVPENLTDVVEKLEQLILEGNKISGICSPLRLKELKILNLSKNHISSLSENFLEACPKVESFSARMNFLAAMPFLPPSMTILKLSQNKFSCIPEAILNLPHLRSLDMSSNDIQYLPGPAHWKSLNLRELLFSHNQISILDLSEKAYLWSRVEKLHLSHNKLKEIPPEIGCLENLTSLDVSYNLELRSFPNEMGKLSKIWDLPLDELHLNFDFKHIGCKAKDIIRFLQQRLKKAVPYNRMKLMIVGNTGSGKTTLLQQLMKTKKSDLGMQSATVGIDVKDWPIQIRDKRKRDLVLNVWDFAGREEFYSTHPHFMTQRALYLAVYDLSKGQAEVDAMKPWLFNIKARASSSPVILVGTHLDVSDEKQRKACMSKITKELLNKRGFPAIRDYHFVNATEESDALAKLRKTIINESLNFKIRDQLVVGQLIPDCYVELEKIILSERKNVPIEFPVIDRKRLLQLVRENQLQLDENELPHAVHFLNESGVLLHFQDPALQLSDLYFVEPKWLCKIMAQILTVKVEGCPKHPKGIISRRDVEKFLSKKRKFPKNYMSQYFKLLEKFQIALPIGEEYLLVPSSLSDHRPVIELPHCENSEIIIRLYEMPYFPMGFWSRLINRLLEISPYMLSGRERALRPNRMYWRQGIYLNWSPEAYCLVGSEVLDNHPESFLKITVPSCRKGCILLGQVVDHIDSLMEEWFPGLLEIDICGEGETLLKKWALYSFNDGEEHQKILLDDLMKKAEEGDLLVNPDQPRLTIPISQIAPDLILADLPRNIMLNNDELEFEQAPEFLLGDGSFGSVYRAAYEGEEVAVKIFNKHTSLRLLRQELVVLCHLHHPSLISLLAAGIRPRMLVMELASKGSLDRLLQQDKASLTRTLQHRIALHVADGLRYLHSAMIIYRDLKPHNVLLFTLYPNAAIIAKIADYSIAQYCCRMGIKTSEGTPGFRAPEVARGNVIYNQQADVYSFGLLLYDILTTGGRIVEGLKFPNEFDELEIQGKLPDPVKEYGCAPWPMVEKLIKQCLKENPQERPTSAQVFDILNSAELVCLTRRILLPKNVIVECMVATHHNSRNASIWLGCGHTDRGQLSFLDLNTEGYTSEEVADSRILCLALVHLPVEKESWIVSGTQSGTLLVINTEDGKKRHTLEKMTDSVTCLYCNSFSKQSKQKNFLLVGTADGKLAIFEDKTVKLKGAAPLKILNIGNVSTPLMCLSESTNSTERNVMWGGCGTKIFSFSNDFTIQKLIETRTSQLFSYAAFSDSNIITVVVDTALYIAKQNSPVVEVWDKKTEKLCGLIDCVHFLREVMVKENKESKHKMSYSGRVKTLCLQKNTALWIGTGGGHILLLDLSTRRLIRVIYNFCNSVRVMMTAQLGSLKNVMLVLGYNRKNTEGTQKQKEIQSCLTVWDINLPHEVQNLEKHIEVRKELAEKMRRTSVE
LRRK2 WT, sequence (Q5S007 970-2527): as the sequence (Q5S007 970-2527 G2019S) above, with S1050G counted along it

As to `CC(C)n1cc(-c2cc(-c3cc(Cl)cc(C(=O)N4CCOCC4)c3)cnc2N)nn1` [Example 26, [3-[6-Amino-5-(1-isopropyltriazol-4-yl)-3-pyridyl]-5-chloro-phenyl]-morpholino-methanone], the IC50 (usually the concentration needed to halve the response being measured) in assay [1] amounted to 0.69 µM; in assay [2], 0.49 µM.

For the molecule `CC(C)c1nnc(-c2cc(-c3ccc4[nH]ccc4c3)cnc2N)o1` [Example 1, 5-(1H-Indol-5-yl)-3-(5-isopropyl-[1,3,4]oxadiazol-2-yl)-pyridin-2-ylamine], the IC50 in assay [1] came to 0.91 µM.

Regarding `Cc1ccc(-c2cnc(N)c(-c3nnc(C4CCN(C)CC4)o3)c2)cc1` [Example 4, 3-[5-(1-Methyl-piperidin-4-yl)-[1,3,4]oxadiazol-2-yl]-5-p-tolyl-pyridin-2-ylamine], the concentration for half-maximal inhibition (IC50) in assay [1] was determined as 0.86 µM; in assay [2], 3.6 µM.

Turning to `CC(C)n1cc(-c2cc(-c3ccc4c(ccn4C)c3)cnc2N)nn1` [Example 9, 3-(1-Isopropyl-1H-[1,2,3]triazol-4-yl)-5-(1-methyl-1H-indol-5-yl)-pyridin-2-ylamine], the IC50 in assay [1] was determined as 0.54 µM; in assay [2], 0.55 µM.

For the molecule `Cc1cc(-c2cnc(N)c(-c3cn(C(C)C)nn3)c2)ccc1C(=O)N1CCOCC1` [Example 20, [4-[6-amino-5-(1-isopropyltriazol-4-yl)-3-pyridyl]-2-methyl-phenyl]-morpholino-methanone], the half-inhibitory concentration (IC50) in assay [1] was 0.11 µM; in assay [2], 0.099 µM.

Consider `CN1CCc2cc(-c3cnc(N)c(-c4nnc(C5CC5)o4)c3)ccc21` [Example 3, 3-(5-Cyclopropyl-[1,3,4]oxadiazol-2-yl)-5-(1-methyl-2,3-dihydro-1H-indol-5-yl)-pyridin-2-ylamine], for which the IC50 in assay [1] came to 0.71 µM; in assay [2], 0.97 µM.

With `Nc1ncc(-c2ccc3[nH]ccc3c2)cc1-c1nnc(C2CC2)o1` [Example 2, 3-(5-Cyclopropyl-[1,3,4]oxadiazol-2-yl)-5-(1H-indol-5-yl)-pyridin-2-ylamine], the concentration for half-maximal inhibition (IC50) in assay [1] is 1 µM; in assay [2], 0.57 µM.

Consider `CC(C)n1cc(-c2cc(-c3ccc(CN4CCOCC4)c(F)c3)cnc2N)nn1` [Example 15, 5-(3-fluoro-4-(morpholinomethyl)phenyl)-3-(1-isopropyl-1H-1,2,3-triazol-4-yl)pyridin-2-amine], for which the results for the half-inhibitory concentration (IC50) in assay [1] and in assay [2] were 0.37 µM and 0.2 µM, respectively.

In the case of `CC(C)n1cc(-c2cc(-c3ccc(CN4CCOCC4)cc3)cnc2N)nn1` [Example 12, 3-(1-Isopropyl-H-[1,2,3]triazol-4-yl)-5-(4-morpholin-4-ylmethyl-phenyl)-pyridin-2-ylamine], the figures for the half-maximal inhibitory concentration (IC50) in assay [1] and in assay [2] were 0.16 µM and 0.3 µM, respectively.

As for `CC(C)n1cc(-c2cc(-c3ccc(C(=O)N4CCOCC4)c(Cl)c3)cnc2N)nn1` [Example 22, [4-[6-amino-5-(1-isopropyltriazol-4-yl)-3-pyridyl]-2-chloro-phenyl]-morpholino-methanone], the IC50 in assay [1] and in assay [2] was 0.29 µM each time.

Regarding `COc1cc(-c2cnc(N)c(-c3cn(C(C)C)nn3)c2)ccc1CN1CCOCC1` [Example 18, 3-(1-isopropyltriazol-4-yl)-5-[3-methoxy-4-(morpholinomethyl)phenyl]pyridin-2-amine], the half-maximal inhibitory concentration (IC50) stood at 0.086 µM in assay [1] and 0.093 µM in assay [2].

For the molecule `Cc1cc(-c2cnc(N)c(-c3cn(C(C)C)nn3)c2)ccc1CN1CCOCC1` [Example 21], the IC50 in assay [1] stood at 0.24 µM; in assay [2] it was 0.26 µM.

For `CC(C)n1cc(-c2cc(-c3ccc4c(c3)CCN4C)cnc2N)nn1` [Example 10, 3-(1-Isopropyl-1H-[1,2,3]triazol-4-yl)-5-(1-methyl-2,3-dihydro-1H-indol-5-yl)-pyridin-2-ylamine], the IC50 in assay [1] was 0.35 µM; in assay [2], 0.62 µM.

As for `CC(C)n1cc(-c2cc(-c3ccc(F)c(CN4CCOCC4)c3)cnc2N)nn1` [Example 19, 5-[4-fluoro-3-(morpholinomethyl)phenyl]-3-(1-isopropyltriazol-4-yl)pyridin-2-amine], the half-maximal inhibitory concentration (IC50) in assay [1] was 0.88 µM; in assay [2], 1 µM.

Turning to `Nc1ncc(-c2ccc(CN3CCOCC3)cc2)cc1-c1nnc(C2CC2)o1` [Example 6, 3-(5-Cyclopropyl-[1,3,4]oxadiazol-2-yl)-5-(4-morpholin-4-ylmethyl-phenyl)-pyridin-2-ylamine], the half-maximal inhibitory concentration (IC50) is 0.39 µM in assay [1] and 0.49 µM in assay [2].

With `CC(C)n1cc(-c2nc(-c3ccc4c(c3)CCN4C)cnc2N)nn1` [Example 11, 3-(1-Isopropyl-1H-[1,2,3]triazol-4-yl)-5-(1-methyl-2,3-dihydro-1H-indol-5-yl)-pyrazin-2-ylamine], the figures for the concentration for half-maximal inhibition (IC50) in assay [1] and in assay [2] were 0.34 µM and 0.57 µM, respectively.

Consider `CC(C)n1cc(-c2cc(-c3ccc(N4CCOCC4)cc3)cnc2N)nn1` [Example 13, 3-(1-Isopropyl-1H-[1,2,3]triazol-4-yl)-5-(4-morpholin-4-yl-phenyl)-pyridin-2-ylamine], for which the IC50 in assay [1] stood at 0.28 µM; in assay [2], 0.34 µM.

As to `CC(C)n1cc(-c2cc(-c3ccc(CCN4CCOCC4)cc3)cnc2N)nn1` [Example 14, 3-(1-Isopropyl-1H-[1,2,3]triazol-4-yl)-5-[4-(2-morpholin-4-yl-ethyl)-phenyl]-pyridin-2-ylamine], the IC50 in assay [1] was determined as 0.34 µM; in assay [2] it was 0.6 µM.

Regarding `CC(C)n1cc(-c2cc(-c3cccc(C(=O)N4CCOCC4)c3)cnc2N)nn1` [Example 25, [3-[6-Amino-5-(1-isopropyltriazol-4-yl)-3-pyridyl]phenyl]-morpholino-methanone], the IC50 in assay [1] stood at 0.95 µM; in assay [2], 0.65 µM.

For the molecule `CC(C)n1cc(-c2cc(-c3ccc(C(=O)N4CCOCC4)c(F)c3)cnc2N)nn1` [Example 16, (4-(6-amino-5-(1-isopropyl-1H-1,2,3-triazol-4-yl)pyridin-3-yl)-2-fluorophenyl)(morpholino)methanone], the concentration for half-maximal inhibition (IC50) stood at 0.51 µM in assay [1] and 0.58 µM in assay [2].

As to `CC(C)n1cc(-c2cc(-c3ccc(C(=O)N4CCOCC4)cc3)cnc2N)nn1` [Example 28, [4-[6-Amino-5-(1-isopropyltriazol-4-yl)-3-pyridyl]phenyl]-morpholino-methanone], the IC50 in assay [1] was 0.43 µM; in assay [2], 0.37 µM.

Turning to `CN1CCc2cc(-c3cnc(N)c(-c4nnc(C5CCNCC5)o4)c3)ccc21` [Example 5, 5-(1-Methyl-2,3-dihydro-1H-indol-5-yl)-3-(5-piperidin-4-yl-[1,3,4]oxadiazol-2-yl)-pyridin-2-ylamine], the IC50 in assay [1] came out at 0.38 µM; in assay [2] it was 2.2 µM.

Take `COc1cccc(-c2cnc(N)c(-c3nnc(C4CCN(C)CC4)o3)c2)c1` [Example 8, 5-(3-Methoxy-phenyl)-3-[5-(1-methyl-piperidin-4-yl)-[1,3,4]oxadiazol-2-yl]-pyridin-2-ylamine]: the IC50 in assay [1] worked out at 0.88 µM; in assay [2], 2.2 µM.

As for `CC(C)n1cc(-c2cc(-c3ccc(CC(=O)N4CCOCC4)cc3)cnc2N)nn1` [Example 30, 2-[4-[6-amino-5-(1-isopropyltriazol-4-yl)-3-pyridyl]phenyl]-1-morpholino-ethanone], the half-maximal inhibitory concentration (IC50) in assay [1] amounted to 0.52 µM; in assay [2], 0.67 µM.

As for `CC(C)n1cc(-c2cc(-c3cccc(CN4CCOCC4)c3)cnc2N)nn1` [Example 24, 3-(1-Isopropyltriazol-4-yl)-5-[3-(morpholinomethyl)phenyl]pyridin-2-amine], the values for the concentration for half-maximal inhibition (IC50) in assay [1] and in assay [2] were 0.5 µM and 0.37 µM, respectively.

For the molecule `COc1cc(-c2cnc(N)c(-c3cn(C(C)C)nn3)c2)ccc1C(=O)N1CCOCC1` [Example 17, [4-[6-amino-5-(1-isopropyltriazol-4-yl)-3-pyridyl]-2-methoxy-phenyl]-morpholino-methanone], the IC50 in assay [1] was 0.095 µM; in assay [2], 0.091 µM.

Turning to `CC(C)n1cc(-c2cc(-c3ccc(CN4CCOCC4)c(Cl)c3)cnc2N)nn1` [Example 23, 5-[3-Chloro-4-(morpholinomethyl)phenyl]-3-(1-isopropyltriazol-4-yl)pyridin-2-amine], the figures for the IC50 in assay [1] and in assay [2] were 0.22 µM and 0.32 µM, respectively.

In the case of `COc1cccc(-c2cnc(N)c(-c3nnc(C4CCNCC4)o3)c2)c1` [Example 7, 5-(3-Methoxy-phenyl)-3-(5-piperidin-4-yl-[1,3,4]oxadiazol-2-yl)-pyridin-2-ylamine], the IC50 in assay [1] is 1 µM; in assay [2], 3.3 µM.
